Tested on: 994946-033-R-J1-PDC complex spheroid viability
Assay: Anticancer human tumor 994946-033-R-J1-PDC patient-derived melanoma cell line growth inhibition [POLQ]
Settings: for IC50: curve of first compound; for viability, T/C: stronger effect = lower value
Outline: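 Complex spheroid viability model combining PDC tumour cells with endothelial (HUVEC) and MSC stromal cells. Novobiocin, ART-558 or RP6685 were tested singly and in combination with standard and investigational anticancer drugs. Each was titrated in half-log steps from near clinical Cmax, or from 10 microM where Cmax was unknown.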

[1] = second compound 0.0316 µM, first compound 0.0316 µM
[2] = second compound 0.0316 µM, first compound 0.1 µM
[3] = second compound 0.0316 µM, first compound 0.316 µM
[4] = second compound 0.0316 µM, first compound 1 µM
[5] = second compound 0.0316 µM, first compound 3.16 µM
[6] = second compound 0.0316 µM, first compound 10 µM
[7] = second compound 0.1 µM, first compound 0.0316 µM
[8] = second compound 0.1 µM, first compound 0.1 µM
[9] = second compound 0.1 µM, first compound 0.316 µM
[10] = second compound 0.1 µM, first compound 1 µM
[11] = second compound 0.1 µM, first compound 3.16 µM
[12] = second compound 0.1 µM, first compound 10 µM
[13] = second compound 0.316 µM, first compound 0.0316 µM
[14] = second compound 0.316 µM, first compound 0.1 µM
[15] = second compound 0.316 µM, first compound 0.316 µM
[16] = second compound 0.316 µM, first compound 1 µM
[17] = second compound 0.316 µM, first compound 3.16 µM
[18] = second compound 0.316 µM, first compound 10 µM
[19] = second compound 1 µM, first compound 0.0316 µM
[20] = second compound 1 µM, first compound 0.1 µM
[21] = second compound 1 µM, first compound 0.316 µM
[22] = second compound 1 µM, first compound 1 µM
[23] = second compound 1 µM, first compound 3.16 µM
[24] = second compound 1 µM, first compound 10 µM
[25] = second compound 3.16 µM, first compound 0.0316 µM
[26] = second compound 3.16 µM, first compound 0.1 µM
[27] = second compound 3.16 µM, first compound 0.316 µM
[28] = second compound 3.16 µM, first compound 1 µM
[29] = second compound 3.16 µM, first compound 3.16 µM
[30] = second compound 3.16 µM, first compound 10 µM
[31] = second compound 10 µM, first compound 0.0316 µM
[32] = second compound 10 µM, first compound 0.1 µM
[33] = second compound 10 µM, first compound 0.316 µM
[34] = second compound 10 µM, first compound 1 µM
[35] = second compound 10 µM, first compound 3.16 µM
[36] = second compound 10 µM, first compound 10 µM
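Further: spheroids exposed to drugs for 7 days.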
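Wherever viability, T/C is given: 100% = DMSO vehicle treated spheroids.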

SMILES: CC1COCCN1c1cc(-c2ccnn2C)c2ccnc(-c3ccn[nH]3)c2n1 (stereo unspecified) + Cc1cccc(N(C)C(=O)C2C(O)CCN2c2nc(C)cc(C(F)(F)F)c2C#N)c1
- IC50 (second compound 0.0316 µM): 0.0603 µM
- IC50 (second compound 0.1 µM): 0.0536 µM
- IC50 (second compound 0.316 µM): 0.0512 µM
- IC50 (second compound 1 µM): 0.057 µM
- IC50 (second compound 3.16 µM): < 0.0316 µM
- IC50 (second compound 10 µM): 0.0882 µM
- viability, T/C [1]: 77.7%
- viability, T/C [2]: 27.9%
- viability, T/C [3]: 13%
- viability, T/C [4]: 24.4%
- viability, T/C [5]: 16.6%
- viability, T/C [6]: 8.57%
- viability, T/C [7]: 69.1%
- viability, T/C [8]: 28.4%
- viability, T/C [9]: 14.2%
- viability, T/C [10]: 31.3%
- viability, T/C [11]: 15.1%
- viability, T/C [12]: 7.78%
- viability, T/C [13]: 72.5%
- viability, T/C [14]: 18.6%
- viability, T/C [15]: 25.1%
- viability, T/C [16]: 12.4%
- viability, T/C [17]: 15.7%
- viability, T/C [18]: 7.71%
- viability, T/C [19]: 63.4%
- viability, T/C [20]: 33.9%
- viability, T/C [21]: 29.9%
- viability, T/C [22]: 16%
- viability, T/C [23]: 13.6%
- viability, T/C [24]: 7.27%
- viability, T/C [25]: 49%
- viability, T/C [26]: 35.3%
- viability, T/C [27]: 18.5%
- viability, T/C [28]: 12.7%
- viability, T/C [29]: 11%
- viability, T/C [30]: 6.95%
- viability, T/C [31]: 81.8%
- viability, T/C [32]: 42%
- viability, T/C [33]: 30.7%
- viability, T/C [34]: 21.6%
- viability, T/C [35]: 15.3%
- viability, T/C [36]: 8.65%

SMILES: CC1COCCN1c1cc(C2(S(C)(=N)=O)CC2)nc(-c2ccnc3[nH]ccc23)n1 (stereo unspecified) + Cc1cccc(N(C)C(=O)C2C(O)CCN2c2nc(C)cc(C(F)(F)F)c2C#N)c1
- IC50 (second compound 0.0316 µM): > 10 µM
- IC50 (second compound 0.1 µM): 4.26 µM
- IC50 (second compound 0.316 µM): 4.2 µM
- IC50 (second compound 1 µM): 1.87 µM
- IC50 (second compound 3.16 µM): > 10 µM
- IC50 (second compound 10 µM): 6.24 µM
- viability, T/C [1]: 103%
- viability, T/C [2]: 111%
- viability, T/C [3]: 112%
- viability, T/C [4]: 61.2%
- viability, T/C [5]: 59.8%
- viability, T/C [6]: 46.8%
- viability, T/C [7]: 71.6%
- viability, T/C [8]: 113%
- viability, T/C [9]: 109%
- viability, T/C [10]: 82.2%
- viability, T/C [11]: 58.8%
- viability, T/C [12]: 28.4%
- viability, T/C [13]: 110%
- viability, T/C [14]: 117%
- viability, T/C [15]: 104%
- viability, T/C [16]: 78.8%
- viability, T/C [17]: 48.8%
- viability, T/C [18]: 48.4%
- viability, T/C [19]: 101%
- viability, T/C [20]: 92%
- viability, T/C [21]: 76.2%
- viability, T/C [22]: 64.6%
- viability, T/C [23]: 36.8%
- viability, T/C [24]: 33.7%
- viability, T/C [25]: 94.5%
- viability, T/C [26]: 110%
- viability, T/C [27]: 97.5%
- viability, T/C [28]: 53.5%
- viability, T/C [29]: 53.2%
- viability, T/C [30]: 52.8%
- viability, T/C [31]: 96.5%
- viability, T/C [32]: 103%
- viability, T/C [33]: 92.2%
- viability, T/C [34]: 75.1%
- viability, T/C [35]: 64.3%
- viability, T/C [36]: 41.3%

SMILES: CCCS(=O)(=O)Nc1ccc(F)c(C(=O)c2c[nH]c3ncc(-c4ccc(Cl)cc4)cc23)c1F + Cc1cccc(N(C)C(=O)C2C(O)CCN2c2nc(C)cc(C(F)(F)F)c2C#N)c1
- IC50 (second compound 0.0316 µM): 6.38 µM
- IC50 (second compound 0.1 µM): 6.17 µM
- IC50 (second compound 0.316 µM): 6.51 µM
- IC50 (second compound 1 µM): 4.95 µM
- IC50 (second compound 3.16 µM): 6.02 µM
- IC50 (second compound 10 µM): 5.54 µM
- viability, T/C [1]: 67.5%
- viability, T/C [2]: 102%
- viability, T/C [3]: 94.3%
- viability, T/C [4]: 81.1%
- viability, T/C [5]: 85.7%
- viability, T/C [6]: 27.1%
- viability, T/C [7]: 91.3%
- viability, T/C [8]: 110%
- viability, T/C [9]: 67.4%
- viability, T/C [10]: 115%
- viability, T/C [11]: 88.2%
- viability, T/C [12]: 22.4%
- viability, T/C [13]: 78.7%
- viability, T/C [14]: 101%
- viability, T/C [15]: 95%
- viability, T/C [16]: 104%
- viability, T/C [17]: 99.3%
- viability, T/C [18]: 22.9%
- viability, T/C [19]: 64.8%
- viability, T/C [20]: 71.4%
- viability, T/C [21]: 81.6%
- viability, T/C [22]: 93%
- viability, T/C [23]: 63.7%
- viability, T/C [24]: 20.9%
- viability, T/C [25]: 103%
- viability, T/C [26]: 76.3%
- viability, T/C [27]: 97.3%
- viability, T/C [28]: 84.9%
- viability, T/C [29]: 95.3%
- viability, T/C [30]: 17.4%
- viability, T/C [31]: 88.4%
- viability, T/C [32]: 84.6%
- viability, T/C [33]: 112%
- viability, T/C [34]: 95.6%
- viability, T/C [35]: 80.9%
- viability, T/C [36]: 17.1%

— PubChem BioAssay AID1963827 (Molecular Pharmacology Branch, DTP, NCI, 2024)
